Data as given in patent US20200239412A1, “NEW DERIVATES OF DHAA WITH ELECTROSTATIC TUNING” (priority 2017, published 2020).
Values joined by “and” are separate entries in the source; they are usually repeats but may differ in a detail not shown here. Equal entries are not always repeated. Structures can show the parent of a compound that is named as a salt. Where two headings read alike, the source gives them in different places.

Legend:
[1] = molecular target: T1, 3R Shaker Kv channel (M356R/A359R) (Drosophila melanogaster, UniProt P08510, A359R/DEL6-46/M356R); conditions: cited from earlier work
T1 sequence (P08510 other isoform, or with tags, fused parts or gaps DEL6-46/M356R/A359R): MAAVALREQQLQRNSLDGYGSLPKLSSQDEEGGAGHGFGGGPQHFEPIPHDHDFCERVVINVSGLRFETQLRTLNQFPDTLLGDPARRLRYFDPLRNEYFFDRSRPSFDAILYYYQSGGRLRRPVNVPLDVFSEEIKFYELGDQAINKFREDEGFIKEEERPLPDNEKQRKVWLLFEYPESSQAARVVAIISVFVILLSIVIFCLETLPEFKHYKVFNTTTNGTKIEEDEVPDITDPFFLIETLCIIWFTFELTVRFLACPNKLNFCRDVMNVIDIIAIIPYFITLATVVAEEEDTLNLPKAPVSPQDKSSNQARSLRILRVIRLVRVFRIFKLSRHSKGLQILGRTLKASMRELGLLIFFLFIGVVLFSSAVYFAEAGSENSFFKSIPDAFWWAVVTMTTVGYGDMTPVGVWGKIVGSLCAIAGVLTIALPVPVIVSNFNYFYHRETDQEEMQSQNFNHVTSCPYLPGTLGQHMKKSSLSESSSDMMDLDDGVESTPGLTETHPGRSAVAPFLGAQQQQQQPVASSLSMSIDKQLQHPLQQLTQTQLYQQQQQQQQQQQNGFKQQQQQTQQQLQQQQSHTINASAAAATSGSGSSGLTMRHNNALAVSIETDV

[2] = molecular target: T1, 3R Shaker Kv channel (M356R/A359R); assay: in vitro; type: cell-based; conditions: for pKa at 100 μM: Drosophila, functional pH dependence, read-out: Functional pKa (pH where half of the maximum G(V) shift was achieved); for G(V) shift: mean
Excerpt: (§1) Experiments were made with the Shaker H4 channel incapable of fast N-type inactivation due to a Δ6-46 deletion, referred to as the wt Shaker Kv channel. The 3R Shaker Kv channel with two additional positively charged arginines (M356R/A359R) in the extracellular end of S4, was also used.
(§2) For the Shaker channels, Bluescript II KS(+) plasmid was linearized with HindIII and synthesis of cRNA were made with the T7 mMessage mMachine kit (Ambion, Austin, Tex.). Point mutations around S4, on the Shaker Kv channel, were introduced using QuickChange Site-Directed Mutagenesis Kit (Agilent Technologies, Santa Clara, Calif.) and sequencing were used for verification.
(§3) 50 nl cRNA was injected into Xenopus laevis oocytes using a Nanoject injector (Drummond Scientific, Broomall, Pa.) and the oocytes were stored at 8° C. in a modified Barth's solution (MBS) before experiments (16° C., M-channel, 1-2 days). The MBS contained (in mM): 88 NaCl, 1 KCl, 2.4 NaHCO3, 15 HEPES, 0.33 Ca(NO3)2, 0.41 CaCl2), and 0.82 MgSO4, pH was adjusted to 7.5 by NaOH and the MBS was supplemented sodium pyruvate (2.5 mM). All animal experiments were approved by the Linkoping's local Animal Care and Use Committee.
(§4) Currents were measured 1-6 days after cRNA injection using the two-electrode voltage clamp technique (GeneClamp 500B amplifier, Axon instruments). Signals were low pass filtered at 5 kHz and digitized by a Digidata 1440A converter (Molecular Devices, Sunnyvale, Calif.). The amplifiers leak compensation was used and Clampex 10.2 software (Molecular Devices) was used to obtain data and create voltage protocols. The extracellular control solution contained (in mM): 1 KCl, 88 NaCl, 0.8 MgCl2, 0.4 CaCl2) and 15 HEPES. pH were adjusted with NaOH. Electrode pipettes were made from borosilicate glass capillaries (Harvard apparatus, Kent, UK) using a two stage electrode puller (Narishige, Tokyo, Japan) and resistance was between 0.5-2.0 MO once filled with 3 M KCl solution. In the voltage protocol for the wt and 3R Shaker channel, holding potential was set to −80 mV and steady-state currents were measured at voltages between −80 and +50 mV (wt Shaker Kv channel) or +70 mV (3R Shaker Kv channel), using 5 mV increments, 100 ms. […] Physiol. 143, 173-182 (2014). For the M-channel, holding potential was set to −100 mV, test-voltages were measured between −120 and +50 mV (10 mV increments for 2 s) and tail currents were measured at −30 mV.
(§5) Control solution was perfused to the recording chamber (0.5 ml/min) and the test solution was added manually with a syringe, in a volume large enough to replace the control solution manifold. Resin acids compounds were dissolved in DMSO (100 mM) and stored at −20° C. Just prior to experiment the compound was diluted to desired concentration in control solution. Recovery was measured after continuously perfusion of control solution, maximum 5 min. All recordings were made with the perfusion off. Experiments were carried out in room temperature (20-23° C.) and chemicals were purchased from Sigma Aldrich if not stated otherwise.
(§6) Currents were leak subtracted and steady-state currents were measured 80-86 ms after onset of the test voltages (Clampfit 10.5, Molecular Devices). K conductance, GK, was calculated using,
(§7) where IK is the steady-state current, V the absolute membrane voltage and VK the reversal potential for K ions (−80 mV), and the following Boltzmann curve was used to fit the data:
(§8) GK(V)=A/(1+exp((V1/2−V)/s)^n (2)
(§9) where A is the amplitude of the curve, V1/2 the midpoint when n=1, s the slope and n an exponent for better curve fitting, set to n=4. The voltage shift was calculated at 10% of maximal conductance in control curve.
(§10) To quantify the concentration dependence or pH dependence of the GK(V) shifts the following equation was used:
(§11) ΔVG(V)=ΔVMAX/(1+c1/2/c), (3)

hKv7.2/Kv7.3 (M-channel) = molecular target: T2, hKv7.2/Kv7.3 (M-channel) (Homo sapiens, UniProt O43525+O43526); assay: Two-electrode voltage clamp, G(V) shift on human M-channel expressed in Xenopus laevis oocytes; type: cell-based
T2 construct: expressed in transfected cells; host or cells: Xenopus laevis oocytes (cRNAs mixed 1:1)
Protocol: Experiments were also made with the human hKv7.2/Kv7.3, referred to as the M-channel. cRNAs were mixed in a 1:1 molar ratio before injection into oocytes. hKv7.2 [GenBank Acc. No. NM_004518]. hKv7.3 [GenBank Acc. No NM_004519].
as §3, §4, §5
For the M channel tail currents were measured 18 ms after onset and then plotted against the test voltage. The Boltzmann curve (Eq. 2) was used to fit data and the slope was set to shared value between control and test compound. V1/2 was used to calculate the GK(V) shift.
as §10, §11
where ΔVG(v) is the voltage shift, ΔVMAX is the amplitude of the curve, c the concentration, c1/2 the concentration at which half maximum response occur. For compounds with no pH dependence the data was fitted with a horizontal line, with the slope set to 0.

[3] = molecular target: wt Shaker Kv channel (Shaker H4, Δ6-46) (Drosophila melanogaster, UniProt P08510, DEL6-46); assay: Two-electrode voltage clamp, G(V) shift on wt Shaker Kv channel expressed in Xenopus laevis oocytes; type: cell-based
Chain of wt Shaker Kv channel (Shaker H4, Δ6-46) (P08510 other isoform, or with tags, fused parts or gaps DEL6-46): as the sequence (P08510 other isoform, or with tags, fused parts or gaps DEL6-46/M356R/A359R) above, with R315M, R318A counted along it
Excerpt: as §1, §2, §3, §4, §5, §6, §7, §8, §9, §10, §11

R362Q Shaker Kv channel = R362Q Shaker Kv channel (Drosophila melanogaster, UniProt P08510, DEL6-46/R362Q); assay: G(V) shift on Shaker Kv channel S4 mutant R362Q compared with wt R362; type: cell-based; conditions: 100 μM, pH 7.4, FIG. 9D
Chain of R362Q Shaker Kv channel (P08510 other isoform, or with tags, fused parts or gaps DEL6-46/R362Q): as the sequence (P08510 other isoform, or with tags, fused parts or gaps DEL6-46/M356R/A359R) above, with R315M, R318A, R321Q counted along it
Protocol: as §2
Currents were measured 1-6 days after cRNA injection using the two-electrode voltage clamp technique (GeneClamp 500B amplifier, Axon instruments). Signals were low pass filtered at 5 kHz and digitized by a Digidata 1440A converter (Molecular Devices, Sunnyvale, Calif.). The amplifiers leak compensation was used and Clampex 10.2 software (Molecular Devices) was used to obtain data and create voltage protocols. The extracellular control solution contained (in mM): 1 KCl, 88 NaCl, 0.8 MgCl2, 0.4 CaCl2) and 15 HEPES. pH were adjusted with NaOH. […] In the voltage protocol for the wt and 3R Shaker channel, holding potential was set to −80 mV and steady-state currents were measured at voltages between −80 and +50 mV (wt Shaker Kv channel) or +70 mV (3R Shaker Kv channel), using 5 mV increments, 100 ms. […] For the M-channel, holding potential was set to −100 mV, test-voltages were measured between −120 and +50 mV (10 mV increments for 2 s) and tail currents were measured at −30 mV. […]

[4] = pH 7.4, concentration-response of G(V) shift, read-out: c1/2 (half-maximal concentration)

## CC(C)c1ccc2c(c1)CC[C@H]1[C@](C)(C(=O)O)CCC[C@]21C [DHAA, dehydroabietic acid]
[1]; pH 7.4, data from Ottosson et al. Sci. Rep. 5, 13278 (2015), read-out: c1/2 (half-maximal concentration)
  EC50: 98 µM
[2]
  pKa at 100 μM: 7.2

## C[C@@]1(C(=O)O)CCC[C@]2(C)c3cc(Cl)c(Cl)c(Cl)c3CCC12 (some centres unmarked) [Wu50, reference compound]
[1]; read-out: c1/2 (half-maximal concentration), pH 7.4, data from Ottosson et al. Sci. Rep. 5, 13278 (2015)
  EC50: 37 µM and 36 µM
[2]; pH 7.4
  Increase of affinity compared to DHAA (factor): 2.7
  Increase of amplitude/efficacy compared to DHAA (factor): 1.7

## CC(C)c1ccc2c(c1)CC[C@H]1[C@](C)(COS(=O)(=O)O)CCC[C@]21C [Wu161, ((1R,4aS,10aR)-7-isopropyl-1,4a-dimethyl-1,2,3,4,4a,9,10,10a-octahydrophenanthren-1-yl)methyl Hydrogen Sulfate]
[2]; [4]
  EC50: 36 µM and 37 µM
hKv7.2/Kv7.3 (M-channel); concentration-response of G(V) shift, read-out: c1/2 (half-maximal concentration)
  EC50: 41.8 µM and 42 µM
[3]; [4]
  EC50: 44 µM
R362Q Shaker Kv channel
  Effect on R362Q compared with wt R362: about the same effects

## CC(C)c1ccc2c(c1)CCC1[C@](C)(CCC(=O)O)CCC[C@]21C (stereo partly drawn) [Wu179, 3-((1S,4aS)-7-isopropyl-1,4a-dimethyl-1,2,3,4,4a,9,10,10a-octahydrophenanthren-1-yl)propanoic Acid]
[2]
  pKa at 100 μM: 7.5
[2]; pH 5.5, 100 μM
  G(V) shift: 2.80 mV
[2]; pH 6.5, 100 μM
  G(V) shift: −3.23 mV
[2]; pH 7.4, 100 μM
  G(V) shift: −10.43 mV
[2]; pH 9, 100 μM
  G(V) shift: −16.63 mV
[2]; pH 10, 100 μM
  G(V) shift: −22.83 mV
hKv7.2/Kv7.3 (M-channel); pH 7.4, 100 μM, mean
  G(V) shift: −6.68 mV
[3]; pH 10, 100 μM, mean
  G(V) shift: −3.83 mV
